Test results as given in paper PMC12754617, “Ruthenium-enhanced curcumin derivatives target tumor growth and cancer-related inflammation in head and neck cancer models” (Frontiers in Oncology, 2025).
Where two headings read alike, the source gives them in different places.

Experiments:
THP1-Blue NF-κB cells = test: MTT viability assay of THP1-Blue NF-κB cells; format: cell-based; conditions: concentrations of the NF-κB activity assay, overnight
Description: A total of 20 μL of sterile filtered MTT (Sigma-Aldrich, Merck, Germany) solution (5 mg/mL in PBS) was added to the remaining overnight culture of THP1-Blue NF-κB cells from the above NF-κB activity assay in 96-well plates, which were incubated at 37°C (see above). After 2 h of incubation at 37°C, the supernatant was removed, and the purple formazan product generated in the cells was dissolved by the addition of 100 μL of DMSO to each well. The plates were then gently shaken for 30 s at room temperature to dissolve the precipitates. The absorbance was measured at 570 nm using an […] 200 PRO microplate reader (TECAN, Switzerland) ([43]).

Detroit 562 = test: Wound healing assay; format: cell-based, human; conditions: IC25 concentration, area closed
Description: (§1) The wound healing activity of complexes 3 and 4 was evaluated using the ibidi Culture-Insert 2 Well in a μ-dish. Cells were plated by applying 70 μL of cell suspension at a density of 50,000 cells into both wells of the Culture-Insert 2 Well and grown over the weekend. Once confluency was achieved, sterile tweezers were used to detach the Culture-Insert 2 Well from the μ-dish. The cell layer was then gently washed with PBS. Subsequently, the cell layer was treated with medium containing complex 3 or 4 at the IC25 concentration, and wound closure was observed and photographed using an inverted light microscope (0–55 h of incubation). Experiments were performed in four independent replicates.
(§2) An in vitro wound healing assay was performed to determine the effect of complex 3 or 4 on cell migration. The area of the wound bordered by a monolayer of cells was measured using ImageJ software. Wound closure was monitored from 0 to 55 h. […] Microscope images after 24 h for all cell lines, as well as 55 h, can be seen in Supplementary Figure S7. […] The stained wound healing area after 55 h is shown in Supplementary Figure S10.

CAL 27 = test: Wound healing assay; format: cell-based, human; conditions: IC25 concentration, area closed
Description: as §1, §2

FaDu = test: Wound healing assay; format: cell-based, human; conditions: IC25 concentration, area closed
Description: as §1, §2

SCC-9 [1] = test: Wound healing assay; format: cell-based, human; conditions: IC25 concentration, area closed
Description: as §1, §2

Hep-2 = test: MTT viability assay; format: cell-based, human
Description: (§3) A colorimetric 3-(4,5-dimethylthiazolyl)-2,5-diphenyltetrazolium bromide (MTT) cell metabolic activity assay was used to assess the cytotoxicity of complexes 3 and 4. The cells (described above) were cultured under standard conditions. Cells were seeded in 96-well plates at a density of 10,000 cells per well (200 μL) and allowed to grow for 24 h. The medium was then replaced with medium containing complex 3 or 4 at a concentration ranging from 0 to 200 μM, and the cells were incubated for an additional 24, 48, and 72 h. Subsequently, the medium was replaced with MTT solution, consisting of yellow tetrazolium dye 3-(4,5-dimethylthiazol-2-yl)-2,5-diphenyltetrazolium bromide (Sigma-Aldrich, Merck, Germany), and incubated for 2 h at 37°C. The dye was then removed, and the resulting purple formazan formed in viable cells was dissolved in DMSO, followed by shaking for 30 s. Absorbance was measured at 570 nm using an […] 200 PRO microplate reader (TECAN, Männedorf, Switzerland). All experiments were performed in quadruplicate and repeated three times.
(§4) The cell inhibitory concentration (IC) was calculated using the equation IC = (Acomplex3/complex4 well/mean Acontrol wells) × 100%. The half-maximal inhibitory concentration (IC50) was determined from dose–response curves using GraphPad Prism 10 (GraphPad Software Inc., La Jolla, CA, USA). The selectivity index toward cancer cells was calculated as a ratio of the average IC50 value for HGF to the IC50 value for the corresponding cancer cell line.

HGF = test: MTT viability assay; format: cell-based, human
Description: as §3, §4

SCC-9 [2] = test: MTT viability assay; format: cell-based, human
Description: as §3, §4

IL-8 = target: T1, IL-8 (Homo sapiens, UniProt P10145); test: Sandwich ELISA assay IL-8; format: binding; conditions: for Decrease of IL-8 concentration: 500 pg/mL IL-8
T1 construct: purchased PeproTech, Thermo Fisher Scientific
T1 sequence (P10145 21-99): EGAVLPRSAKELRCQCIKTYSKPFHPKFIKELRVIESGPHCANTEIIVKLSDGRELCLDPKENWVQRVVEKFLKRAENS
Description: Human ELISA kits for IL-6, IL-6R, and IL-8 (Sigma-Aldrich, Merck, Germany) were used to quantify cytokine levels after treatment with complex 3 or 4. Briefly, 96-well plates precoated with specific antibodies were used to capture IL-6, IL-6R, and IL-8 from samples. […] Each sample was supplemented with 500 pg/mL of IL-6/IL-6R/IL-8. Positive control wells contained only the IL-6/IL-6R/IL-8 standard (PeproTech, Thermo Fisher Scientific, Waltham, Massachusetts, USA). […] After incubation, wells were washed, and biotinylated antihuman antibodies were added, followed by washing and addition of HRP-conjugated streptavidin. Finally, the TMB substrate was added to develop a color proportional to the cytokine concentration, and the reaction was stopped with the stop solution. Absorbance was measured at 450 nm using an […] 200 PRO microplate reader (TECAN, Switzerland).

[3] = tested on: NF-κB in THP1-Blue NF-κB cells; test: NF-κB activity assay (SEAP reporter, LPS-induced); format: cell-based; conditions: LPS 10 ng/mL
Description: THP1-Blue NF-κB cells, NF-κB secreted embryonic alkaline phosphatase (SEAP) reporter monocytes (InvivoGen, USA), were assayed after 20–24 h of incubation following the manufacturer’s protocol. Briefly, cells were seeded at 1 × 10^6 cells/mL in RPMI medium in 96-well plates (180 μL) and treated with complex 3 or 4, Lipopolysaccharide (LPS) (10 ng/mL; […] The next day, NF-κB activation was assessed via the secretion of SEAP. Supernatants (20 μL) were transferred to 96-well plates, and 180 μL of Quanti-Blue was added. Plates were incubated for 2 h at 37°C, and absorbance was measured at 600 nm using an […] 200 PRO microplate reader (TECAN, Switzerland).

[4] = Hep-2, 24 h, read-out: IC50 24h
[5] = Hep-2, 48 h, read-out: IC50 48h
[6] = Hep-2, 72 h, read-out: IC50 72h
[7] = SCC-9, 24 h, read-out: IC50 24h
[8] = SCC-9, 48 h, read-out: IC50 48h
[9] = SCC-9, 72 h, read-out: IC50 72h

Cc1ccc(C(C)C)cc1.Cc1ccc(C(C)C)cc1.O=C1C(=Cc2ccnc3ccccc23)COCC1=Cc1ccnc2ccccc12.[Cl][Ru][Cl].[Cl][Ru][Cl] [Complex 3] was tested, and the “Cytotoxicity in THP1-Blue NF-κB cells (MTT)” value (THP1-Blue NF-κB cells) was “Neither complex 3, complex 4, nor curcumin exhibited significant cytotoxicity”, the “Wound area (%)” value (Detroit 562; Detroit 562, 24 h) was 8 ± 2% and the “Wound area (%)” value (Detroit 562; Detroit 562, 48 h) was 9 ± 3%. The “Wound area (%)” value (Detroit 562; Detroit 562, 55 h) was “less than 20%”, the “Wound area (%)” value (Detroit 562; Detroit 562, 55 h, listed as C3) was 10 ± 2% and the “Wound area (%)” value (CAL 27; CAL 27, 24 h) was 10 ± 2%. For the same compound, the “Wound area (%)” value (CAL 27; CAL 27, 48 h) was 15 ± 3%, the “Wound area (%)” value (CAL 27; CAL 27, 55 h) was “less than 20%” and the “Wound area (%)” value (CAL 27; CAL 27, 55 h, listed as C3) was 16 ± 3%. For the same compound, the “Wound area (%)” value (FaDu; 24 h) was 7 ± 1%, the “Wound area (%)” value (FaDu; 48 h) was 9 ± 1% and the “Wound area (%)” value (FaDu; 55 h) was “less than 20%”. For the same compound, the “Wound area (%)” value (FaDu; 55 h, listed as C3) was 12 ± 1%, the “Wound area (%)” value (SCC-9 [1]; SCC-9, 24 h) was 5 ± 2% and the “Wound area (%)” value (SCC-9 [1]; SCC-9, 48 h) was 6 ± 2%. For the same compound, the “Wound area (%)” value (SCC-9 [1]; SCC-9, 55 h) was “less than 10%”, the “Wound area (%)” value (SCC-9 [1]; SCC-9, 55 h, listed as C3) was 7 ± 2% and the IC50 (Hep-2; [4]) was 12.7 µM. It also gave an IC50 (Hep-2; [5]) of 11.1 ± 0.32 µM, an IC50 (Hep-2; [6]) of 5.15 ± 0.07 µM and an IC50 (HGF; 24 h, read-out: IC50 24h) of 20.8 ± 3.95 µM. The IC50 (HGF; 48 h, read-out: IC50 48h) was 13 ± 0.27 µM, the IC50 (HGF; 72 h, read-out: IC50 72h) was 9.15 ± 1.2 µM and the IC50 (SCC-9 [2]; [7]) was 4.7 µM. The IC50 (SCC-9 [2]; [8]) was 2.85 ± 0.01 µM, the IC50 (SCC-9 [2]; [9]) was 2.8 ± 0.01 µM and the “IL-8 reduction relative to curcumin” value (IL-8; 1 µM versus curcumin at 5 µM) was “roughly 1.5 fold”. The “Decrease of IL-8 concentration” value (IL-8; 8 µM) was “approximately 40%” and the “Reduction of LPS-induced NF-κB activation” value ([3]; 8 μM) was “approximately 80%”.

With Cc1ccc(C(C)C)cc1.Cc1ccc(C(C)C)cc1.O=C1C(=Cc2cccnc2)CCC1=Cc1cccnc1.[Cl][Ru][Cl].[Cl][Ru][Cl] [Complex 4] the “Cytotoxicity in THP1-Blue NF-κB cells (MTT)” value (THP1-Blue NF-κB cells) was “Neither complex 3, complex 4, nor curcumin exhibited significant cytotoxicity”, the “Wound area (%)” value (Detroit 562; Detroit 562, 24 h) was 13 ± 7% and the “Wound area (%)” value (Detroit 562; Detroit 562, 48 h) was 38 ± 11%. For the same compound, the “Wound area (%)” value (Detroit 562; Detroit 562, 55 h) was 76 ± 2%, the “Wound area (%)” value (CAL 27; CAL 27, 24 h) was 7 ± 4% and the “Wound area (%)” value (CAL 27; CAL 27, 48 h) was 11 ± 3%. The “Wound area (%)” value (CAL 27; CAL 27, 55 h) was “less than 15%”, the “Wound area (%)” value (CAL 27; CAL 27, 55 h, listed as C4) was 12 ± 3% and the “Wound area (%)” value (FaDu; 24 h) was 24 ± 6%. For the same compound, the “Wound area (%)” value (FaDu; 48 h) was 43 ± 10%, the “Wound area (%)” value (FaDu; 55 h) was 61 ± 6% and the “Wound area (%)” value (SCC-9 [1]; SCC-9, 24 h) was 17 ± 12%. The “Wound area (%)” value (SCC-9 [1]; SCC-9, 48 h) was 37 ± 8%, the “Wound area (%)” value (SCC-9 [1]; SCC-9, 55 h) was 55 ± 13% and the IC50 (Hep-2; [4]) was 88 ± 4.03 µM. For the same compound, the IC50 (Hep-2; [5]) was 21.2 ± 0.02 µM, the IC50 (Hep-2; [6]) was 37.65 ± 0.36 µM and the IC50 (HGF; 24 h, read-out: IC50 24h) was 28.2 ± 2.78 µM. It also gave an IC50 (HGF; 48 h, read-out: IC50 48h) of 9 ± 1.68 µM, an IC50 (HGF; 72 h, read-out: IC50 72h) of 13.9 ± 0.59 µM and an IC50 (SCC-9 [2]; [7]) of 14.3 µM. For the same compound, the IC50 (SCC-9 [2]; [8]) was 16.6 ± 0.71 µM, the IC50 (SCC-9 [2]; [9]) was 3.65 ± 0.4 µM and the “Decrease of IL-8 concentration” value (IL-8; 15 µM) was “approximately 30%”. The “Reduction of LPS-induced NF-κB activation” value ([3]; 15 μM) was “about 70%”.
